Experiments:
[1] = test system: human cervical tumor cell line HeLa (ATCC CCL-2); test: SAC-Formation - Nocodazole-Induced Assay; format: cell-based; conditions: Homo sapiens, HeLa, 24 h, HeLa cells, nocodazole 0.1 μg/ml together with test compound, decrease of mitotic cells (phospho-histone H3 Ser10)
Method in brief: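 Loss of phospho-histone H3 Ser10-positive cells, counted against Hoechst-stained nuclei by high-content imaging, marked mitotic breakthrough. Compounds (0.005–20 μM, 0.5% DMSO) were co-dosed with 0.1 μg/ml nocodazole onto HeLa cells for 24 h at 37 °C. Curves were fitted with a four-parameter Hill equation.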

[2] = target: T1, catalytic domain of human Bub1 (amino acids 704-1085) (Homo sapiens, UniProt O43683); test: Bub1 kinase assay (TR-FRET); format: biochemical; conditions: 10 μM ATP, avg, read-out: Bub1 avg (IC50 [mol/l])
T1 construct: catalytic domain of human Bub1 (amino acids 704-1085); His6 (N); made in house; host or cells: insect cells (Hi5)
Method in brief: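 Readout is the 665/620 nm TR-FRET ratio from anti-phosphoserine antibody, Eu-labelled anti-mouse IgG and streptavidin-XL665, scaled between no-enzyme and uninhibited controls. Reaction: 1 μM biotinylated peptide, 10 μM ATP, 60 min, 22 °C, after 15 min compound preincubation with His6-Bub1 (704-1085, insect-expressed, ~200 ng/ml).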

T1 sequence (O43683 704-1085): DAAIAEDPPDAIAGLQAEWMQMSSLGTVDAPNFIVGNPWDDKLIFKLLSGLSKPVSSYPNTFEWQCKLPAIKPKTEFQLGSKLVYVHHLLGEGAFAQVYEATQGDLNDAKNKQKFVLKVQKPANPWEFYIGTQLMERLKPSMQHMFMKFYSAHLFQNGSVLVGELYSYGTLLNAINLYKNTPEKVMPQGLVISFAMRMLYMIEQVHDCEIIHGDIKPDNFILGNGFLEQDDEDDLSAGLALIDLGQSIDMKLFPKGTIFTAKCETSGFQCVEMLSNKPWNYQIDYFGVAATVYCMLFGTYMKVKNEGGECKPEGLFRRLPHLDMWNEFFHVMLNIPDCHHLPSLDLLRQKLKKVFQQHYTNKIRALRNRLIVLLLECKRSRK

| Compound | IC50 [1] [nM] | IC50 [2] [nM] |
| --- | --- | --- |
| Cc1nsc(Nc2cncc(C(F)(F)F)n2)c1C(=O)Nc1ccc(OC2CCN(CC(F)F)CC2)c(F)c1 [Example 224, N-(4-{[1-(2,2-difluoroethyl)piperidin-4-yl]oxy}-3-fluorophenyl)-3-methyl-5-{[6-(trifluoromethyl)pyrazin-2-yl]amino}-1,2-thiazole-4-carboxamide] | 110 | > 20000 |
| Cc1nsc(Nc2cncc(C(F)(F)F)n2)c1C(=O)Nc1ccc(C(=O)NC2CCN(CC(F)F)CC2)cc1 [Example 225, N-N-(4-{[1-(2,2-difluoroethyl)piperidin-4-yl]carbamoyl}phenyl)-3-methyl-5-{[6-(trifluoromethyl)pyrazin-2-yl]amino}-1,2-thiazole-4-carboxamide] | 310 | > 20000 |
| Cc1nsc(Nc2cncc(C(F)(F)F)n2)c1C(=O)Nc1ccc(OCC2CCN(C(=O)OC(C)(C)C)CC2)nc1 [Example 226, tert-butyl 4-{[(5-{[(3-methyl-5-{[6-(trifluoromethyl)pyrazin-2-yl]amino}-1,2-thiazol-4-yl)carbonyl]amino}pyridin-2-yl)oxy]methyl}piperidine-1-carboxylate] | 120 | > 20000 |
| Cc1nsc(Nc2cnc(C(F)(F)F)cn2)c1C(=O)Nc1ccc(OCC2CCN(C(=O)OC(C)(C)C)CC2)nc1 [Example 227, tert-butyl 4-{[(5-{[(3-methyl-5-{[5-(trifluoromethyl)pyrazin-2-yl]amino}-1,2-thiazol-4-yl)carbonyl]amino}pyridin-2-yl)oxy]methyl}piperidine-1-carboxylate] | 58 | > 20000 |
| Cc1nsc(Nc2cnc(C(F)(F)F)cn2)c1C(=O)Nc1ccc(OCC2CCCN(C(=O)OC(C)(C)C)C2)nc1 (stereo not shown) [Example 228, tert-butyl 3-{[(5-{[(3-methyl-5-{[5-(trifluoromethyl)pyrazin-2-yl]amino}-1,2-thiazol-4-yl)carbonyl]amino}pyridin-2-yl)oxy]methyl}piperidine-1-carboxylate] | 180 | > 20000 |
| Cc1nsc(Nc2cnc(C(F)(F)F)cn2)c1C(=O)Nc1ccc(F)c(OC2CCN(C(=O)OC(C)(C)C)CC2)c1 [Example 229, tert-butyl 4-(2-fluoro-5-{[(3-methyl-5-{[5-(trifluoromethyl)pyrazin-2-yl]amino}-1,2-thiazol-4-yl)carbonyl]amino}phenoxy)piperidine-1-carboxylate] | 140 | > 20000 |
| Cc1nsc(Nc2cc(C#N)ccn2)c1C(=O)Nc1ccc(Oc2cccc(C(F)(F)F)c2)nc1 [Example 230, 5-[(4-cyanopyridin-2-yl)amino]-3-methyl-N-{6-[3-(trifluoromethyl)phenoxy]pyridin-3-yl}-1,2-thiazole-4-carboxamide] | 89 | > 20000 |
| Cc1nsc(Nc2cnc3ccccc3n2)c1C(=O)Nc1ccc(Oc2cccnc2)nc1 [Example 231, 3-methyl-N-[6-(pyridin-3-yloxy)pyridin-3-yl]-5-(quinoxalin-2-ylamino)-1,2-thiazole-4-carboxamide] | 58 | > 20000 |
| Cc1nsc(Nc2cnc3ccccc3n2)c1C(=O)Nc1ccc(Oc2ccc(SC(F)(F)F)cc2)nc1 [Example 233, 3-methyl-5-(quinoxalin-2-ylamino)-N-(6-{4-[(trifluoromethyl)sulfanyl]phenoxy}pyridin-3-yl)-1,2-thiazole-4-carboxamide] | 4700 | > 20000 |
| Cc1nsc(Nc2cnc3ccccc3n2)c1C(=O)Nc1ccc(NC2CCN(C(=O)OC(C)(C)C)CC2)nc1 [Example 234, tert-butyl 4-{[5-({[3-methyl-5-(quinoxalin-2-ylamino)-1,2-thiazol-4-yl]carbonyl}amino)pyridin-2-yl]amino}piperidine-1-carboxylate] | 1000 | > 20000 |
| COc1ccc(NC(=O)c2c(C)nsc2Nc2cnc3ccccc3n2)c(CC#N)n1 [Example 235, N-[2-(cyanomethyl)-6-methoxypyridin-3-yl]-3-methyl-5-(quinoxalin-2-ylamino)-1,2-thiazole-4-carboxamide] | 530 | > 20000 |
| Cc1nsc(Nc2cnc3ccccc3n2)c1C(=O)Nc1ccc(NCCC(=O)OC(C)(C)C)nc1 [Example 236, tert-butyl N-[5-({[3-methyl-5-(quinoxalin-2-ylamino)-1,2-thiazol-4-yl]carbonyl}amino)pyridin-2-yl]-beta-alaninate] | 3000 | > 20000 |
| COC(=O)c1cc(NC(=O)c2c(C)nsc2Nc2cnc3ccccc3n2)cc(C(=O)OC)c1 [Example 237, dimethyl 5-({[3-methyl-5-(quinoxalin-2-ylamino)-1,2-thiazol-4-yl]carbonyl}amino)isophthalate] | 580 | > 20000 |
| Cc1nsc(Nc2cnc3ccccc3n2)c1C(=O)Nc1ccc(NCC2CCN(C(=O)OC(C)(C)C)CC2)nc1 [Example 238, tert-butyl 4-({[5-({[3-methyl-5-(quinoxalin-2-ylamino)-1,2-thiazol-4-yl]carbonyl}amino)pyridin-2-yl]amino}methyl)piperidine-1-carboxylate] | 3500 | > 20000 |
| Cc1nsc(Nc2cc(C#N)ccn2)c1C(=O)Nc1cccc(C(=O)OC(C)(C)C)c1 [Example 239, tert-butyl 3-[({5-[(4-cyanopyridin-2-yl)amino]-3-methyl-1,2-thiazol-4-yl}carbonyl)amino]benzoate] | 510 | > 20000 |
| Cc1nsc(Nc2ccc(C#N)cn2)c1C(=O)Nc1cccc(C(=O)OC(C)(C)C)c1 [Example 240, tert-butyl 3-[({5-[(5-cyanopyridin-2-yl)amino]-3-methyl-1,2-thiazol-4-yl}carbonyl)amino]benzoate] | 130 | > 20000 |
| Cc1nsc(Nc2cnc3ccccc3n2)c1C(=O)Nc1ccc(NC2CCCN(C(=O)OC(C)(C)C)C2)nc1 (stereo not shown) [Example 241, tert-butyl 3-{[5-({[3-methyl-5-(quinoxalin-2-ylamino)-1,2-thiazol-4-yl]carbonyl}amino)pyridin-2-yl]amino}piperidine-1-carboxylate] | 1400 | > 20000 |
| Cc1nsc(Nc2cc(C#N)ccn2)c1C(=O)Nc1ccc(NC2CCCNC2)nc1 (stereo not shown) [Example 242, 5-[(4-cyanopyridin-2-yl)amino]-3-methyl-N-[6-(piperidin-3-ylamino)pyridin-3-yl]-1,2-thiazole-4-carboxamide] | 2600 | > 20000 |
| Cc1cc(C)n(-c2ccccc2NC(=O)c2c(C)nsc2Nc2cnc3ccccc3n2)n1 [Example 243, N-[2-(3,5-dimethyl-1H-pyrazol-1-yl)phenyl]-3-methyl-5-(quinoxalin-2-ylamino)-1,2-thiazole-4-carboxamide] | 1800 | > 20000 |
| Cc1nsc(Nc2cnc3ccccc3n2)c1C(=O)Nc1ccc(NCCNC(=O)OC(C)(C)C)nc1 [Example 244, tert-butyl (2-{[5-({[3-methyl-5-(quinoxalin-2-ylamino)-1,2-thiazol-4-yl]carbonyl}amino)pyridin-2-yl]amino}ethyl)carbamate] | 3700 | > 20000 |
| Cc1nsc(Nc2cnc3ccccc3n2)c1C(=O)Nc1ccc(Nc2ccc(F)c(F)c2)nc1 [Example 245, N-{6-[(3,4-difluorophenyl)amino]pyridin-3-yl}-3-methyl-5-(quinoxalin-2-ylamino)-1,2-thiazole-4-carboxamide] | 1800 | > 20000 |
| Cc1nsc(Nc2ccc(C#N)cn2)c1C(=O)Nc1ccc(S(C)(=O)=O)cc1 [Example 246, 5-[(5-cyanopyridin-2-yl)amino]-3-methyl-N-[4-(methylsulfonyl)phenyl]-1,2-thiazole-4-carboxamide] | 330 | > 20000 |
| CCN(CC)CCNC(=O)c1cccc(NC(=O)c2c(C)nsc2Nc2cnccn2)c1 [Example 247, N-(3-{[2-(diethylamino)ethyl]carbamoyl}phenyl)-3-methyl-5-(pyrazin-2-ylamino)-1,2-thiazole-4-carboxamide] | 1200 | > 20000 |

From patent US20170334899A1, “AMINO-SUBSTITUTED ISOTHIAZOLES” (Bayer Pharma Aktiengesellschaft, priority 2014, published 2017)
